Data taken from PubChem BioAssay (NCI).
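Step 1: Grow cells in 96-well plates. Step 2: Expose to compound for 48 hours at 5 concentrations. Step 3: Interpolate endpoints linearly; if unreached, use highest concentration. GI50 is the concentration that inhibits growth by half. TGI is the concentration that stops growth completely.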

Columns and labels:
Experiment in all cases: NCI tumour cell line growth inhibition, 48 h
LOX IMVI melanoma = tested on: LOX IMVI melanoma
SNB-75 CNS = tested on: SNB-75 CNS
NCI-H23 lung = tested on: NCI-H23 lung
MDA-MB-231 breast = tested on: MDA-MB-231 breast
HCC-2998 colon = tested on: HCC-2998 colon
SK-MEL-2 melanoma = tested on: SK-MEL-2 melanoma
OVCAR-3 ovarian = tested on: OVCAR-3 ovarian
NCI/ADR-RES ovarian = tested on: NCI/ADR-RES ovarian
NCI-H460 lung = tested on: NCI-H460 lung
M14 melanoma = tested on: M14 melanoma
SN12C renal = tested on: SN12C renal
HOP-92 NSCLC = tested on: HOP-92 NSCLC
HT29 colon = tested on: HT29 colon
CCRF-CEM leukemia = tested on: CCRF-CEM leukemia
TK-10 renal = tested on: TK-10 renal
BT-549 breast = tested on: BT-549 breast
SF-539 CNS = tested on: SF-539 CNS
SF-295 CNS = tested on: SF-295 CNS
SR leukemia = tested on: SR leukemia
CAKI-1 renal = tested on: CAKI-1 renal
EKVX NSCLC = tested on: EKVX NSCLC
OVCAR-8 ovarian = tested on: OVCAR-8 ovarian
HOP-62 NSCLC = tested on: HOP-62 NSCLC
OVCAR-4 ovarian = tested on: OVCAR-4 ovarian
IGROV1 ovarian = tested on: IGROV1 ovarian
A549 NSCLC = tested on: A549 NSCLC
HCT-116 colon = tested on: HCT-116 colon
MCF7 breast = tested on: MCF7 breast
HS 578T breast = tested on: HS 578T breast
HCT-15 colon = tested on: HCT-15 colon
MOLT-4 leukemia = tested on: MOLT-4 leukemia
NCI-H226 lung = tested on: NCI-H226 lung
MALME-3M melanoma = tested on: MALME-3M melanoma
RPMI-8226 leukemia = tested on: RPMI-8226 leukemia
KM12 colon = tested on: KM12 colon
SW-620 colon = tested on: SW-620 colon
U251 CNS = tested on: U251 CNS
SK-MEL-5 melanoma = tested on: SK-MEL-5 melanoma
A498 renal = tested on: A498 renal
SF-268 CNS = tested on: SF-268 CNS
PC-3 prostate = tested on: PC-3 prostate
SK-OV-3 ovarian = tested on: SK-OV-3 ovarian
ACHN renal = tested on: ACHN renal
MDA-MB-435 = tested on: MDA-MB-435
NCI-H522 lung = tested on: NCI-H522 lung
UACC-62 melanoma = tested on: UACC-62 melanoma
UACC-257 melanoma = tested on: UACC-257 melanoma
DU-145 prostate = tested on: DU-145 prostate
786-0 renal = tested on: 786-0 renal
SNB-19 CNS = tested on: SNB-19 CNS
HL-60(TB) leukemia = tested on: HL-60(TB) leukemia
K-562 leukemia = tested on: K-562 leukemia
COLO 205 colon = tested on: COLO 205 colon
OVCAR-5 ovarian = tested on: OVCAR-5 ovarian
SK-MEL-28 melanoma = tested on: SK-MEL-28 melanoma

## CN1C(=O)N(C)C2C1NN=c1s/c(=C\c3c[nH]c4ccccc34)c(=O)n12 (configuration not stated)
LOX IMVI melanoma
  GI50: 51.8 nM
  TGI: > 100000 nM
SNB-75 CNS
  GI50: < 15.8 nM
NCI-H23 lung
  GI50: 47.9 nM
  TGI: > 100000 nM
MDA-MB-231 breast
  GI50: 67.1 nM
  TGI: > 100000 nM
HCC-2998 colon
  GI50: 35.2 nM
  TGI: > 100000 nM
SK-MEL-2 melanoma
  GI50: 34600 nM
  TGI: > 100000 nM
OVCAR-3 ovarian
  GI50: 32.5 nM
  TGI: > 100000 nM
NCI/ADR-RES ovarian
  GI50: 34 nM
NCI-H460 lung
  GI50: 39.7 nM
  TGI: > 100000 nM
M14 melanoma
  GI50: 29.4 nM
  TGI: > 100000 nM
SN12C renal
  GI50: 71.4 nM
  TGI: > 100000 nM
HOP-92 NSCLC
  GI50: 360 nM
  TGI: > 100000 nM
HT29 colon
  GI50: 37.7 nM
  TGI: > 100000 nM
CCRF-CEM leukemia
  GI50: 33.7 nM
  TGI: > 100000 nM
TK-10 renal
  GI50: 34700 nM
  TGI: > 100000 nM
BT-549 breast
  GI50: 55.7 nM
  TGI: > 100000 nM
SF-539 CNS
  GI50: 30.1 nM
  TGI: 55900 nM
SF-295 CNS
  GI50: 30.4 nM
  TGI: 33600 nM
SR leukemia
  GI50: 34.5 nM
  TGI: > 100000 nM
CAKI-1 renal
  GI50: 30.9 nM
  TGI: > 100000 nM
EKVX NSCLC
  GI50: 57.7 nM
  TGI: > 100000 nM
OVCAR-8 ovarian
  GI50: 54.7 nM
  TGI: > 100000 nM
HOP-62 NSCLC
  GI50: 46 nM
  TGI: 52600 nM
OVCAR-4 ovarian
  TGI: > 100000 nM
IGROV1 ovarian
  GI50: 65.4 nM
  TGI: > 100000 nM
A549 NSCLC
  GI50: 109 nM
  TGI: > 100000 nM
HCT-116 colon
  GI50: 37.1 nM
  TGI: > 100000 nM
MCF7 breast
  GI50: 33.8 nM
  TGI: > 100000 nM
HS 578T breast
  GI50: 34.2 nM
  TGI: > 90900 nM
HCT-15 colon
  GI50: 36.5 nM
  TGI: > 100000 nM
MOLT-4 leukemia
  GI50: 64.4 nM
  TGI: > 100000 nM
NCI-H226 lung
  GI50: 143 nM
  TGI: > 100000 nM
MALME-3M melanoma
  GI50: 68.9 nM
  TGI: > 100000 nM
RPMI-8226 leukemia
  GI50: 34.6 nM
  TGI: 1550 nM
KM12 colon
  GI50: 40 nM
  TGI: > 100000 nM
SW-620 colon
  GI50: 44.2 nM
  TGI: > 100000 nM
U251 CNS
  GI50: 41.3 nM
  TGI: > 100000 nM
SK-MEL-5 melanoma
  GI50: 34.7 nM
  TGI: 184 nM
A498 renal
  GI50: 68.8 nM
  TGI: 602 nM
SF-268 CNS
  GI50: 588 nM
  TGI: > 100000 nM
PC-3 prostate
  GI50: 41.3 nM
  TGI: > 100000 nM
SK-OV-3 ovarian
  GI50: 82 nM
  TGI: > 100000 nM
ACHN renal
  GI50: 75.4 nM
  TGI: > 100000 nM
MDA-MB-435
  GI50: 16.2 nM
  TGI: 48.2 nM
NCI-H522 lung
  GI50: 33.1 nM
  TGI: 18900 nM
UACC-62 melanoma
  GI50: 46.4 nM
  TGI: > 100000 nM
UACC-257 melanoma
  GI50: > 100000 nM
  TGI: > 100000 nM
DU-145 prostate
  GI50: 42.8 nM
  TGI: > 28900 nM
786-0 renal
  GI50: 125 nM
  TGI: > 100000 nM
SNB-19 CNS
  GI50: 44.3 nM
  TGI: > 100000 nM
HL-60(TB) leukemia
  GI50: 30.5 nM
  TGI: 858 nM
K-562 leukemia
  GI50: 31.2 nM
  TGI: > 100000 nM
COLO 205 colon
  GI50: 36.3 nM
  TGI: 564 nM
OVCAR-5 ovarian
  GI50: 73.1 nM
  TGI: > 100000 nM
SK-MEL-28 melanoma
  GI50: 34500 nM
  TGI: > 100000 nM
